In the Kinase Knowledgebase extract (Sharma et al. 2016):

What follows are molecules tested against PIK3CG (human) (UniProt P48736) (assay: Assessment of PIK3CG Kinase Activity).
Sequence of PIK3CG (human) (P48736 whole entry, looked up): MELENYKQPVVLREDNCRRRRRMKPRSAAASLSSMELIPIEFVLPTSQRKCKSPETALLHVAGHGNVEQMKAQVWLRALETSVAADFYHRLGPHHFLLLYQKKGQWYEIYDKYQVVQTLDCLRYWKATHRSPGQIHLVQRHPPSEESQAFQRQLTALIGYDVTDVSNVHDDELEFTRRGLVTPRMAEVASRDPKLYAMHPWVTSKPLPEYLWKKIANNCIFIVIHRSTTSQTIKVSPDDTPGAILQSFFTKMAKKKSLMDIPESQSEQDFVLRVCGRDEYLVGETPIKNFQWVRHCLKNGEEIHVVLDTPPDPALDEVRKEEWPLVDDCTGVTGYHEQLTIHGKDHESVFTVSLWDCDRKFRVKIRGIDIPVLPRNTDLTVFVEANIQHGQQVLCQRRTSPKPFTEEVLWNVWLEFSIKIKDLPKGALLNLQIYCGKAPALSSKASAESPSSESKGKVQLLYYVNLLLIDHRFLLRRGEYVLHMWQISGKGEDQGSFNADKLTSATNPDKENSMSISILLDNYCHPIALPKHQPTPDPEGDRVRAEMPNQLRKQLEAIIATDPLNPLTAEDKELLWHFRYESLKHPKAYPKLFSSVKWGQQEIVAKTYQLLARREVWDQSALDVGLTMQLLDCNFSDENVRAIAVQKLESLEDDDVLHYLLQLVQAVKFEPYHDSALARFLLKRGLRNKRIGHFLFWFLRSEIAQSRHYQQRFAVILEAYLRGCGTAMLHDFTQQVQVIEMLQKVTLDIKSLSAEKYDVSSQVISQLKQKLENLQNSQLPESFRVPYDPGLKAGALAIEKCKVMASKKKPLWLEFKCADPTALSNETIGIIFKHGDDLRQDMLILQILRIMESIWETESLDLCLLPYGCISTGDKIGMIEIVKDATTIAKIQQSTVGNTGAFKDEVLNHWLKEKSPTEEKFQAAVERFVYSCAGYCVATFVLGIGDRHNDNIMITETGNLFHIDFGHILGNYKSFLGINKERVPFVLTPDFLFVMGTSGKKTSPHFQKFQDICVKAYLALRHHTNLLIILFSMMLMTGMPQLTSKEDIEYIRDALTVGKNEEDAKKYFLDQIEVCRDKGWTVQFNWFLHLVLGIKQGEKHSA

IC50, < 600 nM:
COC1(C#Cc2ccc(Cl)c(-c3ncc4c(n3)-c3sc(NC(C)=O)nc3CC4)c2)CCN(C)CC1
CCN(C)S(=O)(=O)NCC#Cc1ccc(Cl)c(-c2ncc3c(n2)-c2sc(NC(C)=O)nc2CC3)c1
CC(=O)Nc1nc2c(s1)-c1nc(-c3cc(C#CCOC4CCN(C(C)=O)CC4)ccc3Cl)ncc1CC2
CC(=O)Nc1nc2c(s1)-c1nc(-c3cc(C#CC4CCN(C(=O)NCC5CCCCC5)CC4)ccc3Cl)ncc1CC2
CC(=O)Nc1nc2c(s1)-c1nc(-c3cc(C#C[C@H]4CCCN4)ccc3Cl)ncc1CC2
CC(=O)Nc1nc2c(s1)-c1nc(-c3cc(C#CC4CCN(S(=O)(=O)C5CC5)CC4)ccc3Cl)ncc1CC2
CC(=O)Nc1nc2c(s1)-c1nc(-c3cc(C#CC4CCN(C5CCCC5)CC4)ccc3F)ncc1CC2
CC(=O)Nc1nc2c(s1)-c1nc(-c3cc(C#CCNS(=O)(=O)N(C)C)ccc3Cl)ncc1CC2
CC(=O)Nc1nc2c(s1)-c1nc(-c3cc(C#CCN(C)S(=O)(=O)N4CCOCC4)ccc3Cl)ncc1CC2
CC(=O)Nc1nc2c(s1)-c1nc(-c3cc(C#CCNS(=O)(=O)N4CCCC4)ccc3Cl)ncc1CC2
COCC#Cc1ccc(Cl)c(-c2ncc3c(n2)-c2sc(NC(C)=O)nc2CC3)c1
CC(=O)Nc1nc2c(s1)-c1nc(-c3cc(C#CCCCNCC(C)C)ccc3Cl)ncc1CC2
CCNC(=O)N1CCC(C#Cc2ccc(Cl)c(-c3ncc4c(n3)-c3sc(NC(C)=O)nc3CC4)c2)CC1
CC(=O)Nc1nc2c(s1)-c1nc(-c3cc(C#CCNCCN4CCCC4)ccc3Cl)ncc1CC2
CC(=O)Nc1nc2c(s1)-c1nc(-c3cc(C#CCNCc4ncccc4C)ccc3Cl)ncc1CC2
CC(=O)Nc1nc2c(s1)-c1nc(-c3cc(C#CCCO)ccc3Cl)ncc1CC2
CCN(CC)S(=O)(=O)NCC#Cc1ccc(Cl)c(-c2ncc3c(n2)-c2sc(NC(C)=O)nc2CC3)c1
CC(=O)Nc1nc2c(s1)-c1nc(-c3cc(C#CCNC(=O)C(C)C)ccc3Cl)ncc1CC2
CC(=O)Nc1nc2c(s1)-c1nc(-c3cc(C#CC4(NC(C)C)CCCCC4)ccc3Cl)ncc1CC2
CC(=O)Nc1nc2c(s1)-c1nc(-c3cc(C#CCN4CCCC4)ccc3Cl)ncc1CC2
CC(=O)Nc1nc2c(s1)-c1nc(-c3cc(C#C[C@@H]4CCCN4)ccc3Cl)ncc1CC2
CC(=O)Nc1nc2c(s1)-c1nc(-c3cc(C#CCNC4CCN(C)CC4)ccc3Cl)ncc1CC2
CC(=O)Nc1nc2c(s1)-c1nc(-c3cc(C#CCCN4CCCC4)ccc3Cl)ncc1CC2
CC(=O)Nc1nc2c(s1)-c1nc(-c3cc(C#CC4CCN(S(=O)(=O)C(C)C)CC4)ccc3Cl)ncc1CC2
CC(=O)Nc1nc2c(s1)-c1nc(-c3cc(C#CCNS(=O)(=O)c4ccccc4)ccc3Cl)ncc1CC2
CC(=O)Nc1nc2c(s1)-c1nc(-c3cc(Cl)cc(C#CC4(N)CCCCC4)c3)ncc1CC2
CC(=O)Nc1nc2c(s1)-c1nc(-c3cccc(C#CC4(O)CCN(C(C)C)CC4)c3)ncc1CC2
CC(=O)Nc1nc2c(s1)-c1nc(-c3cc(C#CC4(O)CCC(C)(C)CC4)ccc3Cl)ncc1CC2
CC(=O)Nc1nc2c(s1)-c1nc(-c3cc(C#Cc4cccnc4)ccc3Cl)ncc1CC2
CC(=O)Nc1nc2c(s1)-c1nc(-c3cc(C#CCN4CCC(N(C)C)CC4)ccc3Cl)ncc1CC2
CC(=O)Nc1nc2c(s1)-c1nc(-c3cc(Cl)cc(C#CCNC(=O)CC(C)(C)C)c3)ncc1CC2
CC(=O)Nc1nc2c(s1)-c1nc(-c3cc(C#CCNCc4ccccn4)ccc3Cl)ncc1CC2
CC(=O)Nc1nc2c(s1)-c1nc(-c3cc(C#CCCN4CCOCC4)ccc3Cl)ncc1CC2
CC(=O)Nc1nc2c(s1)-c1nc(-c3cc(C#Cc4cncn4C)ccc3Cl)ncc1CC2
CC(=O)Nc1nc2c(s1)-c1nc(-c3cc(C#CCNCC(C)C)ccc3Cl)ncc1CC2
CC(=O)Nc1nc2c(s1)-c1nc(-c3cc(C#CCCCN(C)C(C)C)ccc3Cl)ncc1CC2
CC(=O)Nc1nc2c(s1)-c1nc(-c3cc(C#CC4CCN(C(=O)N5CCCC5)CC4)ccc3Cl)ncc1CC2
CC(=O)Nc1nc2c(s1)-c1nc(-c3cc(C#CCN(C)C(C)C)ccc3Cl)ncc1CC2
CC(=O)Nc1nc2c(s1)-c1nc(-c3cc(Cl)cc(C#CCN(C)C)c3)ncc1CC2
COC1(C#Cc2ccc(F)c(-c3ncc4c(n3)-c3sc(NC(C)=O)nc3CC4)c2)CCCCC1
CC(=O)Nc1nc2c(s1)-c1nc(-c3cc(C#CC4CCN(C(C)C)CC4)ccc3Cl)ncc1CC2
COC1(C#Cc2ccc(F)c(-c3ncc4c(n3)-c3sc(NC(C)=O)nc3CC4)c2)CCN(C)CC1
CC(=O)Nc1nc2c(s1)-c1nc(-c3cc(C#CCN4CCN(C(C)=O)CC4)ccc3Cl)ncc1CC2
CNC1(C#Cc2ccc(Cl)c(-c3ncc4c(n3)-c3sc(NC(C)=O)nc3CC4)c2)CCCCC1
CC(=O)Nc1nc2c(s1)-c1nc(-c3cc(C#CC4(O)CCN(C(C)C)CC4)ccc3Cl)ncc1CC2
CC(=O)Nc1nc2c(s1)-c1nc(-c3cc(C#CCNS(N)(=O)=O)ccc3Cl)ncc1CC2
CC(=O)Nc1nc2c(s1)-c1nc(-c3cccc(C#CCNS(=O)(=O)C4CC4)c3)ncc1CC2
CC(=O)Nc1nc2c(s1)-c1nc(-c3cc(C#CC4CCN(C(=O)CC(C)C)CC4)ccc3Cl)ncc1CC2
CC(=O)Nc1nc2c(s1)-c1nc(-c3cc(C#CCNS(=O)(=O)C4CCCCC4)ccc3Cl)ncc1CC2
CC(=O)Nc1nc2c(s1)-c1nc(-c3cc(C#CCNS(C)(=O)=O)ccc3Cl)ncc1CC2
CC(=O)Nc1nc2c(s1)-c1nc(-c3cc(C#CC4CCN(C(=O)CC5CCCC5)CC4)ccc3Cl)ncc1CC2
CC(=O)Nc1nc2c(s1)-c1nc(-c3cc(C#CCNS(=O)(=O)N4CCOCC4)ccc3Cl)ncc1CC2
CC(=O)Nc1nc2c(s1)-c1nc(-c3cc(C#CC4(NC(C)=O)CCCCC4)ccc3Cl)ncc1CC2
CC(=O)Nc1nc2c(s1)-c1nc(-c3cc(C#CCN4CC[S+]([O-])CC4)ccc3Cl)ncc1CC2
CC(=O)Nc1nc2c(s1)-c1nc(-c3cc(C#CCN(C)C(C)=O)ccc3Cl)ncc1CC2
CCS(=O)(=O)NCC#Cc1ccc(Cl)c(-c2ncc3c(n2)-c2sc(NC(C)=O)nc2CC3)c1
CC(=O)Nc1nc2c(s1)-c1nc(-c3cccc(C#CCNS(=O)(=O)N(C)C)c3)ncc1CC2
CC(=O)Nc1nc2c(s1)-c1nc(-c3cc(C#CC(C)(C)N)ccc3Cl)ncc1CC2
CCC(N)(C#Cc1ccc(Cl)c(-c2ncc3c(n2)-c2sc(NC(C)=O)nc2CC3)c1)CC
CCNC1(C#Cc2ccc(Cl)c(-c3ncc4c(n3)-c3sc(NC(C)=O)nc3CC4)c2)CCCCC1
CC(=O)Nc1nc2c(s1)-c1nc(-c3cc(C#CCN(C)CC(C)C)ccc3Cl)ncc1CC2
CC(=O)Nc1nc2c(s1)-c1nc(-c3cc(C#CC4(N(C)C)CCCC4)ccc3Cl)ncc1CC2
CC(=O)Nc1nc2c(s1)-c1nc(-c3cc(C#CCn4ccnc4)ccc3Cl)ncc1CC2
CC(=O)Nc1nc2c(s1)-c1nc(-c3cc(C#CCN(C)C(=O)C(C)C)ccc3Cl)ncc1CC2
CC(=O)Nc1nc2c(s1)-c1nc(-c3cc(C#CCNC(C)C)ccc3Cl)ncc1CC2
CC(=O)Nc1nc2c(s1)-c1nc(-c3cc(C#CCNC(=O)CC4CCN(C)CC4)ccc3Cl)ncc1CC2
COC1(C#Cc2ccc(Cl)c(-c3ncc4c(n3)-c3sc(NC(C)=O)nc3CC4)c2)CCN(C2CCCC2)CC1
CC(=O)Nc1nc2c(s1)-c1nc(-c3cc(C#CCCNCC4CCCC4)ccc3Cl)ncc1CC2
CC(=O)Nc1nc2c(s1)-c1nc(-c3cc(C#CC4CCN(C(=O)NC(C)C)CC4)ccc3Cl)ncc1CC2
CC(=O)Nc1nc2c(s1)-c1nc(-c3cccc(C#CC4CCN(C(C)C)CC4)c3)ncc1CC2
CC(=O)Nc1nc2c(s1)-c1nc(-c3cc(C#CCNC(=O)CN(C)C)ccc3Cl)ncc1CC2
CC(=O)Nc1nc2c(s1)-c1nc(-c3cc(C#CC4(N(C)C)CCCCC4)ccc3Cl)ncc1CC2
CC(=O)Nc1nc2c(s1)-c1nc(-c3cc(C#CCCN4CCCCC4)ccc3Cl)ncc1CC2
CC(=O)Nc1nc2c(s1)-c1nc(-c3cc(C#CCNC(=O)CC4CCCCC4)ccc3Cl)ncc1CC2
CC(=O)Nc1nc2c(s1)-c1nc(-c3cc(C#CCN4CCN(C)C(=O)C4)ccc3Cl)ncc1CC2
CC(=O)Nc1nc2c(s1)-c1nc(-c3cccc(C#CC4(O)CCN(C)CC4)c3)ncc1CC2
CC(=O)Nc1nc2c(s1)-c1nc(-c3cc(C#CCNC(=O)CCC(C)C)ccc3Cl)ncc1CC2
CC(=O)Nc1nc2c(s1)-c1nc(-c3cc(C#CC4CCN(C(=O)N(C)C)CC4)ccc3Cl)ncc1CC2
CC(=O)Nc1nc2c(s1)-c1nc(-c3cc(C#CCNC(=O)Cn4ccnc4)ccc3Cl)ncc1CC2
